Measurements published in the NIST ThermoML archive (doi:10.1016/j.jct.2017.05.001).

Test: wn = mass fraction of the nth substance listed
Conditions: 293.15 K, Liquid; for mass density: Vibrating tube method

CN(C)CCO [2-(N,N-dimethylamino)ethanol] + O
viscosity [mPa·s]
Conditions | 100 kPa | 5000 kPa | 10000 kPa | 15000 kPa | 20000 kPa | 25000 kPa | 30000 kPa | 40000 kPa | 60000 kPa | 80000 kPa
Concentric cylinders viscometry, w1 = 0.1 | 1.587 | – | – | – | – | – | – | – | – | –
Concentric cylinders viscometry, w1 = 0.2 | 2.614 | – | – | – | – | – | – | – | – | –
Concentric cylinders viscometry, w1 = 0.3 | 4.334 | – | – | – | – | – | – | – | – | –
Concentric cylinders viscometry, w1 = 0.4 | 6.754 | – | – | – | – | – | – | – | – | –
Falling or rolling sphere viscometry, w1 = 0.1005 | 1.559 | 1.564 | 1.564 | 1.563 | 1.562 | 1.561 | 1.564 | 1.564 | 1.562 | 1.57
Falling or rolling sphere viscometry, w1 = 0.202 | 2.533 | 2.547 | 2.557 | 2.566 | 2.574 | 2.583 | 2.589 | 2.605 | 2.637 | –
Falling or rolling sphere viscometry, w1 = 0.3005 | 4.211 | 4.223 | 4.258 | 4.295 | 4.33 | 4.374 | 4.405 | 4.464 | 4.588 | –
Falling or rolling sphere viscometry, w1 = 0.3995 | 6.587 | 6.535 | 6.564 | 6.801 | 6.863 | 6.822 | 7.027 | 6.883 | 7.591 | –

mass density [kg/m3]
Conditions | w1 = 0.1005 | w1 = 0.202 | w1 = 0.3005 | w1 = 0.3995
100 kPa | 994.5 | 992.6 | 990.6 | 986.6
500 kPa | 994.7 | 992.7 | 990.7 | 986.7
1000 kPa | 994.8 | 992.9 | 990.9 | 986.9
2000 kPa | 995.3 | 993.3 | 991.3 | 987.3
5000 kPa | 996.5 | 994.4 | 992.4 | 988.4
10000 kPa | 998.5 | 996.3 | 994.2 | 990.3
15000 kPa | 1000.5 | 998.2 | 996 | 992.1
20000 kPa | 1002.6 | 1000 | 997.8 | 994
30000 kPa | 1006.6 | 1003.7 | 1001.4 | 997.5
40000 kPa | 1010.5 | 1007.4 | 1004.9 | 1001
50000 kPa | 1014.3 | 1010.8 | 1008.2 | 1004.4
60000 kPa | 1018.1 | 1014.3 | 1011.6 | 1007.7
70000 kPa | 1021.8 | 1017.9 | 1014.9 | 1011
